The record followed here is ChEMBL document CHEMBL1671777, “X-ray crystal structure and binding mode analysis of human S-adenosylhomocysteine hydrolase complexed with novel mechanism-based inhibitors, haloneplanocin A analogues” (J Med Chem, 2011).

A value given as a limit tells only on which side of the number the result lay.

In this assay the target is Adenosylhomocysteinase (Homo sapiens, UniProt P23526). Kind of assay: Inhibition of human placental AdoHcy hydrolase expressed in Escherichia coli JM109.
Chain of Adenosylhomocysteinase (P23526 whole entry): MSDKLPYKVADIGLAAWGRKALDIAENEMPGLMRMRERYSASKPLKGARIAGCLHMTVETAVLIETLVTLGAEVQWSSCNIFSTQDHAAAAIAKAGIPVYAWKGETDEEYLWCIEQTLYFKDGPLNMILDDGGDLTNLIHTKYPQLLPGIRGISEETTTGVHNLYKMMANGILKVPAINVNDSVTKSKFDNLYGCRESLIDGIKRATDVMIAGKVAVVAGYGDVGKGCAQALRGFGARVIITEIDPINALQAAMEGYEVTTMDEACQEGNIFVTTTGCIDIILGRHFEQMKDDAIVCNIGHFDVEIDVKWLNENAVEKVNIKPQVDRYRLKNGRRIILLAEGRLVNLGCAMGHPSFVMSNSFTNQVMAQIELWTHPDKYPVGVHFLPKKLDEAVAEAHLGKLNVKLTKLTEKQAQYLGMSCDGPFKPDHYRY
Usually IC50 stands for the concentration that inhibits the measured activity by half. The low end stands for inhibition by little substance, the high end for a need for much substance. With `Nc1ncnc2c1ncn2[C@@H]1C(I)=C(CO)[C@@H](O)[C@H]1O`, the IC50 is greater than 1000 µM.

`Nc1ncnc2c1ncn2[C@@H]1C(Br)=C(CO)[C@@H](O)[C@H]1O` gave an IC50 of 60.2 µM.

Consider `Nc1ncnc2c1ncn2[C@@H]1C=C[C@@H](O)[C@H]1O`, for which the IC50 is 5.83 µM. Consider `Nc1ncnc2c1ncn2[C@@H]1C=C(CO)[C@@H](O)[C@H]1O` [NEOPLANOCIN A], for which 0.87 µM corresponded to half-maximal inhibition (IC50). For `Nc1ncnc2c1ncn2[C@@H]1C(Br)=C[C@@H](O)[C@H]1O` the value was greater than 1000 µM; for `Nc1ncnc2c1ncn2[C@@H]1C(F)=C[C@@H](O)[C@H]1O`, 7.67 µM; for `Nc1ncnc2c1ncn2[C@@H]1C(Cl)=C[C@@H](O)[C@H]1O`, greater than 1000 µM. Consider `Nc1ncnc2c1ncn2[C@@H]1C(I)=C[C@@H](O)[C@H]1O`, for which the IC50 was greater than 1000 µM. The figure for `Nc1ncnc2c1ncn2[C@@H]1C(Cl)=C(CO)[C@@H](O)[C@H]1O` is 36.5 µM.
